Data as given in ChEMBL document CHEMBL6153144, “Conformational Role of Methyl in the Potency of Cyclohexane-Substituted Squaramide CCR6 Antagonists” (J Med Chem, 2025).
pIC50: −log10 of the molar value.

Tests used:
[1] = biological target: Voltage-gated inwardly rectifying potassium channel KCNH2 (Homo sapiens, UniProt Q12809); test: Inhibition of hERG; format: toxicity
[2] = Metabolic stability in human hepatocytes assessed as apparent intrinsic clearance measured per molar; format: ADME, cell-based, Hepatocyte
[3] = biological target: CYP (isoform not stated) (Homo sapiens, UniProt P04798+P05177+P05181+P08684+P10632+P10635+P11509+P11712+P13584+P20813+P20815+P20853+P24462+P24903+P33260+P33261+P51589+P78329+P98187+Q02928+Q08477+Q16678+Q16696+Q5TCH4+Q6VVX0+Q7Z449+Q8TAV3+Q96SQ9+Q9HB55); test: Inhibition of CYP (unknown origin) at 3 uM relative to control; format: ADME, protein assay
[4] = Lipophilicity, logD of compound by shake flask method; format: physicochemical; conditions: octanol/water

Sequence of Voltage-gated inwardly rectifying potassium channel KCNH2 (Q12809 whole entry): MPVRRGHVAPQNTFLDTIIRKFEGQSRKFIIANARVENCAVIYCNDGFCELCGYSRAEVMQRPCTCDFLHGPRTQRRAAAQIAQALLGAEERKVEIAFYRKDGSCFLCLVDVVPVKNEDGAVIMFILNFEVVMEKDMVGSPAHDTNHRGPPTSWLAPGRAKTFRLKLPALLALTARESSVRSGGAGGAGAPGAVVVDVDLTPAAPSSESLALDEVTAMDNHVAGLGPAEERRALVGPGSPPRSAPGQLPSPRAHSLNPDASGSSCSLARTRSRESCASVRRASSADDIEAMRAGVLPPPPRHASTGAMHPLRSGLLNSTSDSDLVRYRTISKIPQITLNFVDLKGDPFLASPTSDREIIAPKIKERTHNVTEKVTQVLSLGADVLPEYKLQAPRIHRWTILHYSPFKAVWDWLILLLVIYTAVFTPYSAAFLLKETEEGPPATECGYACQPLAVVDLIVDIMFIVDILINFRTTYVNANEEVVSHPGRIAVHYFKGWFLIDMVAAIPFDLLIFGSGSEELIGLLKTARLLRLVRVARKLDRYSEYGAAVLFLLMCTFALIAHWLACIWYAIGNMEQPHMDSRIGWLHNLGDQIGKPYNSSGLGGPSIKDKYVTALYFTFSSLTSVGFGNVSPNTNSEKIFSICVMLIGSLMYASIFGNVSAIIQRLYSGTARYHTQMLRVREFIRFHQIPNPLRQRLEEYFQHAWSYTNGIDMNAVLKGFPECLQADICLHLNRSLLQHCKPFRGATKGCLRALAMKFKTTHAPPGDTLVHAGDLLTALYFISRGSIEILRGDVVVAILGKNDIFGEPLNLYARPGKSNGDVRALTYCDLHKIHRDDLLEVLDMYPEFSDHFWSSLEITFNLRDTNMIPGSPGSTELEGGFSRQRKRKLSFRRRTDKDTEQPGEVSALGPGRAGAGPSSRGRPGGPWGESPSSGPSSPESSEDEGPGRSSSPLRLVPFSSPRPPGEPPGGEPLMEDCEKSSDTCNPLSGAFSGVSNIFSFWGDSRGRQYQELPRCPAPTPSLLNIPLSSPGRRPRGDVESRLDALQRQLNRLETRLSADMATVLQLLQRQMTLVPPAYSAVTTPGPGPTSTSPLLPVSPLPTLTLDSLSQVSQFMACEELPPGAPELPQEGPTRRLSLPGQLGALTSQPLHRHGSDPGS

Row | Compound | CL(app) [2] | also measured
1 | C[C@@H]1CCC[C@H](C)[C@@H]1Nc1c(Nc2ccnc(C(=O)N(C)C)c2O)c(=O)c1=O | 6.9 µL/min | –
2 | C[C@@H]1CCCC[C@]1(C)Nc1c(Nc2ccnc(C(=O)N(C)C)c2O)c(=O)c1=O | 9.9 µL/min | –
3 | CN(C)C(=O)c1nccc(Nc2c(NC3CCCCC3)c(=O)c2=O)c1O | – | logD [4]: 0.86
4 | C[C@@H]1CCCC[C@@H]1Nc1c(Nc2ccnc(C(=O)N(C)C)c2O)c(=O)c1=O | 4.7 µL/min | –
5 | C[C@H]1CCCC[C@H]1Nc1c(Nc2ccnc(C(=O)N(C)C)c2O)c(=O)c1=O | 6.8 µL/min | –

The next lines start with results.

Row | CL(app) [2] | Compound | also measured
6 | 2.9 µL/min | C[C@@H]1OCCC[C@]1(C)Nc1c(Nc2ccnc(C(=O)N(C)C)c2O)c(=O)c1=O | pIC50 [1]: < 4.00; inhibition at 3 µM [3]: < 5%
7 | 3.4 µL/min | C[C@H]1OCCC[C@@]1(C)Nc1c(Nc2ccnc(C(=O)N(C)C)c2O)c(=O)c1=O | –
8 | 8.3 µL/min | C[C@H]1CCCC[C@@]1(C)Nc1c(Nc2ccnc(C(=O)N(C)C)c2O)c(=O)c1=O | –
